According to US7985731B2, “Sugar chain added GLP-1 peptide” (Otsuka Chemical Holdings Co., Ltd., priority 2007, dated 2011):
Peptide text beside a SMILES is read from it. * marks the point of attachment. X1 = CC(=O)N[C@@H]1[C@@H](O)[C@H](O[C@@H]2O[C@H](CO)[C@@H](O[C@@H]3O[C@H](CO[C@H]4O[C@H](CO)[C@@H](O)[C@H](O)[C@@H]4O[C@@H]4O[C@H](CO)[C@@H](O[C@@H]5O[C@H](CO[C@]6(C(=O)O)C[C@H](O)[C@@H](NC(C)=O)[C@H]([C@H](O)[C@H](O)CO)O6)[C@H](O)[C@H](O)[C@H]5O)[C@H](O)[C@H]4NC(C)=O)[C@@H](O)[C@H](O[C@H]4O[C@H](CO)[C@@H](O)[C@H](O)[C@@H]4O[C@@H]4O[C@H](CO)[C@@H](O[C@@H]5O[C@H](CO[C@]6(C(=O)O)C[C@H](O)[C@@H](NC(C)=O)[C@H]([C@H](O)[C@H](O)CO)O6)[C@H](O)[C@H](O)[C@H]5O)[C@H](O)[C@H]4NC(C)=O)[C@@H]3O)[C@H](O)[C@H]2NC(C)=O)[C@@H](CO)O[C@H]1NC(=O)C*

What was measured:
mouse GLP-1 receptor = target: T1, mouse GLP-1 receptor (Mus musculus, UniProt O35659); assay: Test Example 6: ability to synthesize cAMP in mouse GLP-1 receptor-expressing CHO-K1 cells; assay type: cell-based
T1 construct: expressed in transfected cells
T1 sequence (O35659 22-463): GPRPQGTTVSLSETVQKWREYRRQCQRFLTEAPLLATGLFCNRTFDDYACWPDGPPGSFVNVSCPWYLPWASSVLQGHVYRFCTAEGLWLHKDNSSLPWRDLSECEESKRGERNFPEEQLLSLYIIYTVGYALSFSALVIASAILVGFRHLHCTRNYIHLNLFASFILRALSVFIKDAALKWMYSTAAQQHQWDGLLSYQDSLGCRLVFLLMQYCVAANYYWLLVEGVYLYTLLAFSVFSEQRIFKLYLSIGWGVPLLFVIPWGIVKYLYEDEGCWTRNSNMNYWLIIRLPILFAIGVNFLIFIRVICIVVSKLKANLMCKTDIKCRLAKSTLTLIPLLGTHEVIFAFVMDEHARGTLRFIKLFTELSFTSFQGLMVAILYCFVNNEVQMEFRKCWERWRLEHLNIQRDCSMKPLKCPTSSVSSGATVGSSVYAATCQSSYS
Experimental: 1. Construction of Mouse GLP-1 Receptor-Expressing Vector
A mouse GLP1 receptor sense primer (5′-[…]-3′) (SEQ ID NO: 152) and a mouse GLP-1 receptor antisense primer (5′-[…]-3′) (SEQ ID NO: 153) capable of binding to the 5′ and 3′ ends of mouse GLP-1 receptor cDNA were separately synthesized. PCR was performed using Ex Taq polymerase (TaKaRa) with cDNA (Clone ID: 40046534, Open Biosystems) as a template. Specifically, 50 μL in total of reaction solution consisting of 1 μL of template cDNA (10 ng/μL), 4 μL of 2.5 mM dNTPs, 1 μL of primer solution mixtures (each 50 μM), 5 μL of ×10 Ex Taq polymerase Buffer, 0.25 μL of Ex Taq polymerase and 38.75 μL of sterilized water was used and allowed to react by 94° C. for 1 minute; 94° C. for 45 seconds, 55° C. for 1 minute and 72° C. for 2 minutes (35 cycles); and 72° C. for 10 minutes. The PCR reaction product was electrophoresed on 1% agarose gel, and the cDNA fragment was purified using Wizard SV Gel and PCR Clean-up System (Promega) and treated with restriction enzymes (EcoRI and NheI) to obtain mouse GLP-1 receptor cDNA.
To efficiently obtain cells highly expressing a mouse GLP-1 receptor, a pIRES-gfp vector was used as an expression vector. This vector was prepared by inserting, to a vector pEGFP-N1 (Clontech), an IRES gene-containing DNA fragment obtained by the restriction enzyme treatment (Sal I and BamHI) of pIRESpuro2 (Clontech).
The mouse GLP-1 receptor cDNA fragment was inserted to pIRES-gfp to thereby obtain a mouse GLP-1 receptor-expressing vector mGLP-1R/pIRES-gfp. The DNA sequence of the obtained vector was confirmed using ABI3100-Avant (Applied Biosystems).
2. Preparation of Mouse GLP-1 Receptor-Expressing CHO-K1 Cells
CHO-K1 cells (ATCC catalog No. CCL-61) were transfected with the obtained mGLP-1R/pIRES-gfp using FuGENE (registered trademark) (Roche) according to the instruction manual. The transfected CHO-K1 cells were cultured in RPMI1640 medium (Wako Pure Chemical Industries) containing 10% FCS (Hyclone) and penicillin-streptomycin (SIGMA). Drug selection was conducted by the addition of 1.0 mg/ml G418 (Wako Pure Chemical Industries). The drug resistance cells were sorted with a cell sorter (EPICS ALTRA, Beckman Coulter) using a GFP expression level as an index. After the sorting, the limiting dilution method was conducted to obtain cells highly expressing GFP, namely, cells highly expressing a mouse GLP-1 receptor. The obtained cells were used as mouse GLP-1 receptor-expressing CHO-K1 cells in the experiment shown below.
3. Analysis of Agonist Effect of Oligosaccharide Chain Added GLP-1 Peptide (Ability to Synthesize cAMP)
The mouse GLP-1 receptor-expressing CHO-K1 cells prepared in the preceding paragraph 2 were used to evaluate the agonist effect of the oligosaccharide chain added GLP-1 peptide using the ability to synthesize cAMP as an index.
The mouse GLP-1 receptor-expressing CHO-K1 cells were suspended at a concentration of 5×10^5 cells/ml in RPMI1640 medium containing 10% FCS. The cell suspension was seeded at a concentration of 100 μL per well to a flat-bottomed 96-well plate (Falcon) and cultured at 5% CO2 at 37° C. for 16 hours. The culture supernatant was discarded. The oligosaccharide chain added GLP-1 peptide dissolved in Krebs Ringer bicarbonate Buffer containing 2.5 mM glucose was added at a concentration of 100 μL/well and cultured at 37° C. for 30 minutes. The culture supernatant was immediately discarded. The amount of cAMP synthesized in the mouse GLP-1 receptor-expressing CHO-K1 cells was measured using cAMP ELISA Kit (GE Healthcare or Cayman) and used as an index for the agonist effect of the oligosaccharide chain added GLP-1 peptide on mouse GLP-1 receptors.
GLP-1 increases intracellular cAMP concentrations through the binding to its receptor and promotes insulin secretion. Thus, the activity of the oligosaccharide chain added GLP-1 peptide was evaluated using the ability to synthesize cAMP as an index. […]

C57BL/6JJcl mice = assay: Test Example 7: Oral Glucose Tolerance Test (OGTT); assay type: in vivo; details: 9 nmol/kg intraperitoneal 30 minutes before glucose 1 mg/g oral
Experimental: After 30 minutes, a glucose solution was orally administered at a dose of 1 mg/g. Blood was collected from the orbits before the glucose administration and 30 minutes, 60 minutes and 120 minutes after the glucose administration. Blood-sugar levels were measured using ACCU-CHEK Aviva (Roche Diagnostics).
After the oral administration of the glucose solution to the mice fasted overnight, blood was collected over time, and blood-sugar levels were measured.
The correlation between the oligosaccharide chain structure and the activity was studied in mouse OGTT.

SMILES	cAMP synthesis activity compared with GLP-1 (in words) (mouse GLP-1 receptor)	effect of suppressing rise in blood-sugar levels in OGTT (C57BL/6JJcl mice)
CC[C@H](C)[C@H](NC(=O)[C@H](Cc1ccccc1)NC(=O)[C@H](CCC(=O)O)NC(=O)[C@H](CCCCN)NC(=O)[C@H](C)NC(=O)[C@H](C)NC(=O)[C@H](CCC(N)=O)NC(=O)CNC(=O)[C@H](CCC(=O)O)NC(=O)[C@H](CC(C)C)NC(=O)[C@H](Cc1ccc(O)cc1)NC(=O)[C@H](CO)NC(=O)[C@H](CO)NC(=O)[C@@H](NC(=O)[C@H](CC(=O)O)NC(=O)[C@H](CO)NC(=O)[C@@H](NC(=O)[C@H](Cc1ccccc1)NC(=O)[C@@H](NC(=O)CNC(=O)[C@H](CCC(=O)O)NC(=O)[C@H](C)NC(=O)[C@@H](N)Cc1c[nH]cn1)[C@@H](C)O)[C@@H](C)O)C(C)C)C(=O)N[C@@H](C)C(=O)N[C@@H](Cc1c[nH]c2ccccc12)C(=O)N[C@@H](CC(C)C)C(=O)N[C@H](C(=O)N[C@@H](CCCCN)C(=O)NCC(=O)N[C@@H](CCCNC(=N)N)C(=O)NCC(=O)N[C@@H](CSCC(=O)N[C@@H]1O[C@H](CO)[C@@H](O[C@@H]2O[C@H](CO)[C@@H](O[C@@H]3O[C@H](CO[C@H]4O[C@H](CO)[C@@H](O)[C@H](O)[C@@H]4O[C@@H]4O[C@H](CO)[C@@H](O[C@@H]5O[C@H](CO[C@]6(C(=O)O)C[C@H](O)[C@@H](NC(C)=O)[C@H]([C@H](O)[C@H](O)CO)O6)[C@H](O)[C@H](O)[C@H]5O)[C@H](O)[C@H]4NC(C)=O)[C@@H](O)[C@H](O[C@H]4O[C@H](CO)[C@@H](O)[C@H](O)[C@@H]4O[C@@H]4O[C@H](CO)[C@@H](O[C@@H]5O[C@H](CO[C@]6(C(=O)O)C[C@H](O)[C@@H](NC(C)=O)[C@H]([C@H](O)[C@H](O)CO)O6)[C@H](O)[C@H](O)[C@H]5O)[C@H](O)[C@H]4NC(C)=O)[C@@H]3O)[C@H](O)[C@H]2NC(C)=O)[C@H](O)[C@H]1NC(C)=O)C(=O)O)C(C)C [Example 5, 38Cys GLP-1-disialo]	activity equal to or more than that of the GLP-1	strong effect of suppressing rise in blood-sugar levels
CC[C@H](C)[C@H](NC(=O)[C@H](Cc1ccccc1)NC(=O)[C@H](CCC(=O)O)NC(=O)[C@H](CCCCN)NC(=O)[C@H](C)NC(=O)[C@H](C)NC(=O)[C@H](CCC(N)=O)NC(=O)CNC(=O)[C@H](CCC(=O)O)NC(=O)[C@H](CC(C)C)NC(=O)[C@H](Cc1ccc(O)cc1)NC(=O)[C@H](CO)NC(=O)[C@H](CO)NC(=O)[C@@H](NC(=O)[C@H](CC(=O)O)NC(=O)[C@H](CO)NC(=O)[C@@H](NC(=O)[C@H](Cc1ccccc1)NC(=O)[C@@H](NC(=O)CNC(=O)[C@H](CCC(=O)O)NC(=O)[C@H](C)NC(=O)[C@@H](N)Cc1c[nH]cn1)[C@@H](C)O)[C@@H](C)O)C(C)C)C(=O)N[C@@H](C)C(=O)N[C@@H](Cc1c[nH]c2ccccc12)C(=O)N[C@@H](CC(C)C)C(=O)N[C@H](C(=O)N[C@@H](CSCC(=O)N[C@@H]1O[C@H](CO)[C@@H](O[C@@H]2O[C@H](CO)[C@@H](O[C@@H]3O[C@H](CO[C@H]4O[C@H](CO)[C@@H](O)[C@H](O)[C@@H]4O[C@@H]4O[C@H](CO)[C@@H](O[C@@H]5O[C@H](CO)[C@H](O)[C@H](O)[C@H]5O)[C@H](O)[C@H]4NC(C)=O)[C@@H](O)[C@H](O[C@H]4O[C@H](CO)[C@@H](O)[C@H](O)[C@@H]4O[C@@H]4O[C@H](CO)[C@@H](O[C@@H]5O[C@H](CO)[C@H](O)[C@H](O)[C@H]5O)[C@H](O)[C@H]4NC(C)=O)[C@@H]3O)[C@H](O)[C@H]2NC(C)=O)[C@H](O)[C@H]1NC(C)=O)C(=O)NCC(=O)N[C@@H](CCCNC(=N)N)C(=O)NCC(=O)O)C(C)C [Example 27, 34Cys GLP-1-asialo]	activity equal to or more than that of the GLP-1	strong effect of suppressing rise in blood-sugar levels
CC[C@H](C)[C@H](NC(=O)[C@H](Cc1ccccc1)NC(=O)[C@H](CCC(=O)O)NC(=O)[C@H](CCCCN)NC(=O)[C@H](C)NC(=O)[C@H](C)NC(=O)[C@H](CCC(N)=O)NC(=O)[C@H](CSCC(=O)N[C@@H]1O[C@H](CO)[C@@H](O[C@@H]2O[C@H](CO)[C@@H](O[C@@H]3O[C@H](CO[C@H]4O[C@H](CO)[C@@H](O)[C@H](O)[C@@H]4O[C@@H]4O[C@H](CO)[C@@H](O[C@@H]5O[C@H](CO[C@]6(C(=O)O)C[C@H](O)[C@@H](NC(C)=O)[C@H]([C@H](O)[C@H](O)CO)O6)[C@H](O)[C@H](O)[C@H]5O)[C@H](O)[C@H]4NC(C)=O)[C@@H](O)[C@H](O[C@H]4O[C@H](CO)[C@@H](O)[C@H](O)[C@@H]4O[C@@H]4O[C@H](CO)[C@@H](O[C@@H]5O[C@H](CO[C@]6(C(=O)O)C[C@H](O)[C@@H](NC(C)=O)[C@H]([C@H](O)[C@H](O)CO)O6)[C@H](O)[C@H](O)[C@H]5O)[C@H](O)[C@H]4NC(C)=O)[C@@H]3O)[C@H](O)[C@H]2NC(C)=O)[C@H](O)[C@H]1NC(C)=O)NC(=O)[C@H](CCC(=O)O)NC(=O)[C@H](CC(C)C)NC(=O)[C@H](Cc1ccc(O)cc1)NC(=O)[C@H](CO)NC(=O)[C@H](CO)NC(=O)[C@@H](NC(=O)[C@H](CC(=O)O)NC(=O)[C@H](CO)NC(=O)[C@@H](NC(=O)[C@H](Cc1ccccc1)NC(=O)[C@@H](NC(=O)CNC(=O)[C@H](CCC(=O)O)NC(=O)[C@H](C)NC(=O)[C@@H](N)Cc1c[nH]cn1)[C@@H](C)O)[C@@H](C)O)C(C)C)C(=O)N[C@@H](C)C(=O)N[C@@H](Cc1c[nH]c2ccccc12)C(=O)N[C@@H](CC(C)C)C(=O)N[C@H](C(=O)N[C@@H](CCCCN)C(=O)NCC(=O)N[C@@H](CCCNC(=N)N)C(=O)NCC(=O)O)C(C)C [Example 2, 22Cys GLP-1-disialo] (H-HAEGTFTSDVSSYLEC(X1)QAAKEFIAWLVKGRG-OH)	activity equal to or more than that of the GLP-1	strong effect of suppressing rise in blood-sugar levels
